Experimental data reported in patent US7943631B2, “Method of treating drug addiction using dextro-morphine” (MCW Research Foundation, Inc., priority 2007, dated 2011).
Read-outs that look alike come from different tables or passages of the source.

How the values were obtained:
[1] = system: extracellular dopamine in the Acb shell; assay: Microdialysis of extracellular dopamine in the Acb shell after microinjection into the VTA, urethane-anesthetized rats; format: in vivo, rat
Procedure: Groups of rats were microinjected with endomorphin-1 (1, 3 or 10 μg) or vehicle into the VTA (A). In other groups of rats, (−)-naloxone (4 or 40 ng) or vehicle was co-microinjected into the VTA with endomorphin-1 (10 μg). The perfusates from the microdialysis probe at the nucleus accumbens shell were collected every 15 min from 30 min before microinjection and continuously collected for another 120 min (A) or 105 min (B) after microinjection. The perfusates were then analyzed their dopamine level. […] (B) For the group of rats injected with different dose of (−)-naloxone+endomorphin-1 versus vehicle+endomorphin-1, Finteraction (18, 150)=3.338, Ftreatment (2, 150)=7.671, Ftime (9, 150)=11.17, *P<0.01; only the data of the dopamine level after the 0 min time point were used for the statistic analysis; the group of rats microinjected with vehicle alone in (B) was not included in the statistic analysis.
. The perfusates were then analyzed their dopamine level. […]; only the data of the dopamine level after the 0 min time point were used for statistic analysis; the vehicle pretreatment followed by vehicle microinjected group was not included in the statistic analysis.
Groups of rats were microinjected with a various dose of endomorphin-1 (1, 3 and 10 μg) or vehicle given into the VTA and the release of dopamine from the Acb shell were studied. […] The dopamine level returned to baseline 60 min thereafter (FIG. 8A). To determine if the increased release of dopamine induced by endomorphin-1 is mediated by the stimulation of μ-opioid receptors, the effect of (−)-naloxone on the increased release of dopamine induced by endomorphin-1 was then studied.

[2] = system: rats
[3] = cited from earlier work; for production of conditioned place preference or aversion: 4 mg/kg s.c., given systemically, Mucha and Herz 1986; for block of the CPP produced by (−)-morphine: Olmstead and Burns 2005
[4] = system: rats; assay: Conditioned place preference, (−)-morphine and (+)-morphine microinjected into the Acb shell; format: in vivo, rat
[5] = system: rats; assay: Conditioned place preference (CPP), drugs given systemically; format: in vivo, rat; details: for effect given alone on baseline place conditioning (CPP or conditioned place aversion): 3 μg/kg i.p. alone, rats treated s.c. with saline vehicle
[6] = system: mice; assay: Tail-flick response after intrathecal injection, mouse spinal cord; details: for (−)-morphine-produced tail-flick inhibition after pretreatment given alone (did not affect): 10 μg intrathecal alone, 45 min before (−)-morphine 1 μg, measured 15 min after; for reversal of the (+)-morphine-induced attenuation of (−)-morphine-produced tail-flick inhibition: intrathecal with (+)-morphine 10 pg, BD1047 1-10 μg, (+)-pentazocine 0.1-10 μg, in a dose-dependent manner
[7] = cited from earlier work; for block or reversal of the (+)-morphine-induced attenuation of systemic (−)-morphine-produced antinociception: pretreatment

CN1CC[C@]23c4c5ccc(O)c4O[C@H]2[C@@H](O)C=C[C@H]3[C@H]1C5 [(+)-morphine]
block of the endomorphin-1-induced increase of extracellular dopamine ([1]; 3 pg into the VTA, 45 min before endomorphin-1 10 μg): completely blocked the increase of the extracellular dopamine in the Acb shell | effect on basal levels of extracellular dopamine ([1]; microinjection into the VTA): did not affect the basal levels of extracellular dopamine in the Acb shell | block of the nicotine-produced increase of conditioned place preference at single dose ([2]; 0.3 pg into the Acb, nicotine 20 μg): completely block the nicotine-produced increase of the conditioned place preference | block of the nicotine-produced increase of conditioned place preference ([2]; pretreatment 0.03 to 3 pg into the Acb, nicotine 20 μg): blocked dose-dependently | production of conditioned place preference or aversion [3]: does not produce any conditioned place preference nor does it produce any conditioned place aversion | attenuation of (−)-morphine-produced conditioned place preference ([4]; 0.1 to 10 pg into the Acb shell, 45 min before (−)-morphine 5 μg, same site): dose-dependently attenuated the (−)-morphine-produced conditioned place preference | production of conditioned place preference given alone ([4]; 3 to 100 pg into the Acb shell, alone): did not produce any conditioned place preference | attenuation of (−)-morphine-produced conditioned place preference at higher doses ([4]; 30, 100 and 1000 pg into the Acb shell, 45 min before (−)-morphine 5 μg): did not attenuate the (+)-morphine-produced conditioned place preference | dose of maximal inhibition (U-shape dose-response curve) ([4]; into the Acb shell, dose range 0.1 to 1000 pg): 3 pg | effect given alone on baseline place conditioning (CPP or conditioned place aversion) [5]: did not affect the baseline place conditioning | effect given alone on baseline place conditioning (CPP or conditioned place aversion) ([5]; listed as dextro-morphine): did not produce CPP nor conditioned place aversion | attenuation of (−)-morphine-produced CPP at higher dose ([5]; i.p. pretreatment 100 μg/kg, 1 h before (−)-morphine sulfate 5 mg/kg s.c.): did not attenuate the (−)-morphine-produced CPP | attenuation of (−)-morphine-produced CPP ([5]; i.p. pretreatment 0.1 to 3 μg/kg, 1 h before (−)-morphine sulfate 5 mg/kg s.c.): dose-dependently attenuated the (−)-morphine-produced CPP | dose of maximal inhibition of the morphine-produced CPP (U-shaped dose-response curve) ([5]; i.p., dose range 0.1 to 100 μg/kg): 3 µg/kg | effect on (−)-morphine-produced tail-flick inhibition ([6]; 10 pg intrathecal, 45 min before (−)-morphine 1 μg intrathecal): attenuated the (−)-morphine-produced tail-flick inhibition | attenuation of antinociception produced by (−)-morphine given systemically ([7]; pretreated systemically, Wu et al., 2007): attenuates the antinociception produced by (−)-morphine given systemically

C=CCN1CC[C@]23c4c5ccc(O)c4O[C@H]2C(=O)CC[C@]3(O)[C@H]1C5 [(+)-naloxone]
block or reversal of the (+)-morphine-induced attenuation of systemic (−)-morphine-produced antinociception ([7]; Wu et al., 2007): blocked or reversed

(−)-naloxone
attenuation of the endomorphin-1-induced increase of extracellular dopamine ([1]; 40 ng co-administered into the VTA with endomorphin-1 10 μg): attenuated the increase of the extracellular dopamine in the Acb shell | block or reversal of the (+)-morphine-induced attenuation of systemic (−)-morphine-produced antinociception ([7]; Wu et al., 2007): blocked or reversed

O=C1CC[C@@]2(O)[C@H]3Cc4ccc(O)c5c4[C@@]2(CCN3CC2CC2)[C@H]1O5 [naltrexone]
block of the CPP produced by (−)-morphine [3]: blocked

CN1CC[C@]23c4c5ccc(O)c4O[C@H]2[C@@H](O)C=C[C@H]3[C@H]1C5.O=S(=O)(O)O [(−)-morphine sulfate, (−)-Morphine sulfate]
production of conditioned place preference or aversion [3]: produces marked conditioned place preference | production of conditioned place preference at higher dose ([4]; 10 μg into the Acb shell): produced no further increase of conditioned place preference | production of conditioned place preference ([4]; 2.5 or 5 μg into the Acb shell): dose-dependently produced conditioned place preference | production of CPP at higher dose ([5]; rats, s.c., 10 mg/kg): produced no more increase of the CPP | production of CPP ([5]; rats, s.c., 1 and 5 mg/kg): dose-dependently produced CPP

CC(C)=CCN1CCC2(C)c3cc(O)ccc3CC1C2C (single isomer, unassigned; (+)) [(+)-pentazocine]
(−)-morphine-produced tail-flick inhibition after pretreatment given alone (did not affect) [6]: 8.89 ± 0.53 s | reversal of the (+)-morphine-induced attenuation of (−)-morphine-produced tail-flick inhibition [6]: reversed | effect against morphine, both given spinally ([7]; 13 μg against morphine 700 ng, mice, Mei and Pasternak 2002): without effect against morphine | effect on (−)-morphine-produced analgesia, systemic administration ([7]; 5 or 10 mg/kg, Chien and Pasternak 1994): antagonizes (−)-morphine-produced analgesia

Endomorphin-1
extracellular dopamine in the Acb shell ([1]; 10 μg into the VTA, 15 min after injection): caused an increase of the extracellular dopamine in the Acb shell | time for the dopamine level to return to baseline ([1]; 10 μg into the VTA, thereafter): 60 min

CN1CCCC1c1cccnc1 (stereo not shown) [nicotine]
production of conditioned place preference at higher dose ([2]; 40 μg microinjected into the Acb): produced less increase of the conditioned place preference than that of 20 μg of nicotine | production of conditioned place preference ([2]; 5 to 20 μg microinjected into the Acb): dose-dependently increased the conditioned place preference

C=CCN1CC[C@]23c4c5ccc(O)c4O[C@H]2/C(=N/N=C2\CC[C@@]4(O)[C@H]6Cc7ccc(O)c8c7[C@@]4(CCN6CC=C)[C@H]2O8)CC[C@@]3(O)[C@H]1C5 [naloxonazine]
block of the CPP produced by (−)-morphine [3]: blocked

Br.Br.CN(C)CCN(C)CCc1ccc(Cl)c(Cl)c1 [BD1047, N-[2-(3,4-Dichlorophenyl)ethyl]-N-methyl-2-(dimethylamino)ethylamine dihydrobromide]
effect given alone on the morphine-produced CPP ([5]; 3 mg/kg i.p. alone, morphine sulfate 5 mg/kg s.c.): did not affect the morphine-produced CPP | effect given alone on baseline place preference ([5]; 3 mg/kg i.p. alone, rats treated with saline vehicle): nor did it affect the baseline place preference | reversal of the attenuation of (−)-morphine-produced CPP induced by (+)-morphine ([5]; 1, 3 or 6 mg/kg i.p. with (+)-morphine 3 μg/kg, 1 h before morphine sulfate 5 mg/kg s.c.): dose-dependently reversed the attenuation of the morphine-produced CPP | (−)-morphine-produced tail-flick inhibition after pretreatment given alone (did not affect) [6]: 9.19 ± 0.42 s | reversal of the (+)-morphine-induced attenuation of (−)-morphine-produced tail-flick inhibition [6]: reversed | block or reversal of the (+)-morphine-induced attenuation of systemic (−)-morphine-produced antinociception ([7]; Wu et al., 2007): blocked or reversed
